Measurements published in patent US20240075046A1 (priority 2020, published 2024).
Entries after “also recorded” stand apart in the source; their conditions may differ.

Tests used:
[1] = tested on: AR, CDC25, GREB1, PGR and TFF1; experiment: Expression of genes upregulated by estradiol binding to ERα, real-time PCR in MCF7 cells; format: cell-based; settings: 18 hours, FIGS. 10D-10H
MCF7 cells [2] = format: cell-based
ZR-75-1 cells = experiment: Apoptosis by Annexin V/PI staining, flow cytometry; format: cell-based; settings: CANN14 4 μg/ml, tamoxifen 5 μM or combination
T47D cells = experiment: Apoptosis by Annexin V/PI staining, flow cytometry; format: cell-based; settings: CANN14 4 μg/ml, tamoxifen 5 μM or combination
[3] = tested on: cleaved caspase-3 in MCF7 cells; experiment: Cleaved caspase-3 western blot; format: cell-based; settings: 8 hours, CANN14 4 μg/ml, tamoxifen 5 μM, relative to DMSO control
[4] = tested on: cleaved caspase-3 in ZR-75-1 cells; experiment: Cleaved caspase-3 western blot; format: cell-based; settings: 8 hours, CANN14 4 μg/ml, tamoxifen 5 μM, relative to DMSO control
[5] = tested on: cleaved caspase-3 in T47D cells; experiment: Cleaved caspase-3 western blot; format: cell-based; settings: 8 hours, CANN14 4 μg/ml, tamoxifen 5 μM, relative to DMSO control
MCF7 cells [6] = experiment: In-vivo mouse model, subcutaneous MCF7 ectopic tumor; settings: nude mice, MCF7 tumors; IP three times weekly; CANN14 25 mg/kg, tamoxifen 2 mg/kg
MCF7 cells [7] = settings: extracts 4 μg/ml, 24 hours, tamoxifen 5 μM, alone or combined
ESR1 = ESR1 expression level, real-time PCR in MCF7 cells; format: cell-based; settings: 18 hours, FIG. 10C
Description: The expression level of ESR1, the gene encoding for ERα, using real-time PCR following 18 hours of CANN14 treatment was examined. RNA was extracted from 5×10^5 cells and isolated using TRI reagents (Sigma, UK) according to the manufacturer's protocol. The RNA was reverse transcribed with Maxima First Strand cDNA synthesis kit (Life Technologies, Burlington, Canada) and RT-qPCR was preformed using Taq-Man (Life Technologies Ltd, UK). The fold change of calculated compared to the housekeeping gene 18S, using the formula 2^(−ΔΔCT). DMSO was used as a control. […] The activity of ERα as a transcriptional regulator by assessing its binding to Estrogen Response Elements (ERE) following CANN14 treatment was then examined. MCF7 cells were transfected with ERE-luciferase plasmid and luciferase activity was measured.
Next, the effect of the three identified cannabinoids on ERα expression and activity was examined. ERα protein level in MCF7, T47D, and ZR-75-1 cells was measured following 18 hours treatment with either THC, CBN or CF2, separately or in combinations (FIGS. 7A-7B, 8A-8B, and 9A-9B, respectively). […] ESR1 expression level was lowest following treatment with CF2 alone (FIG. 10C).

[8] = tested on: Immortalized Human Endometriotic Cell Line (12Z); experiment: Endometriosis model, Annexin V assay, cell viability; format: cell-based; settings: 12Z cells; 24 hours; CF2 concentration of 1 μg/mL
Description: To determine the therapeutic effects of CF2 on endometriosis, an Immortalized Human Endometriotic Cell Line (12Z) was used. Cells were incubated in a 12 well plate, each containing 1×10^6 cells. The cells were treated with either vehicle, or CF2 (0.125 to 1 μg/mL each) for 24 hours. Apoptosis was assessed using the Annexin V assay as detailed above. Data are presented as mean±S.E.M (n=3) and statistically analyzed by two-way ANOVA (*p<0.05, ****p<0.0001).

ERα [9] = molecular target: T1, ERα (Homo sapiens, UniProt P03372); experiment: Endometriosis model, estrogen receptor western blot in 12Z cell line; format: cell-based; set-up: endogenous in cells; host or cells: 12Z; settings: 5 h, CF2 0.125 to 0.75 μg/mL
T1 sequence (P03372 whole entry): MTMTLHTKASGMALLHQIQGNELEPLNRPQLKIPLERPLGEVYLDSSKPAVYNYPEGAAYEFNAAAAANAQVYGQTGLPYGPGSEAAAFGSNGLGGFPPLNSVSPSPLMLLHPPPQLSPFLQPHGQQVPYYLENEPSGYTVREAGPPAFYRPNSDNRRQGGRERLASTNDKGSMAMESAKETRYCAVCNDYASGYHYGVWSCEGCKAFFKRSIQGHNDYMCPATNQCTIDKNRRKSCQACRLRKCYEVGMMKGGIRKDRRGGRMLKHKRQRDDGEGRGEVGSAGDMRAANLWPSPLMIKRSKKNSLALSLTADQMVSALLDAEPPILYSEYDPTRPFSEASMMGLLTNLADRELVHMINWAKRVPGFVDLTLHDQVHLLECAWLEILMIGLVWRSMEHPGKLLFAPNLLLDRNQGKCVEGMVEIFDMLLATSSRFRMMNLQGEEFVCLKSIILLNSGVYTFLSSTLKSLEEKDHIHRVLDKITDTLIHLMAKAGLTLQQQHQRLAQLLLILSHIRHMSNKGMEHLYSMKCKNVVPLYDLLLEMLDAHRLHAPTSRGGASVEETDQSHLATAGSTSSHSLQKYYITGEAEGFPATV

ERα [10] = molecular target: T1, ERα; experiment: ERα protein level, western blot in MCF7 cells; format: cell-based; set-up: The intensity of ERα in the nucleus of MCF7 cells was reduced with time; endogenous in cells; host or cells: MCF7; settings: 18 hours, single cannabinoids vs 1:25:1,000 combination, FIGS. 10A-10B

CCCCCc1cc(O)c2c(c1)OC(C)(C)c1ccc(C)cc1-2 [CBN, cannabinol, reference compound]
expression levels of ERα target genes [1]: reduced to the lowest level compared to the control

CC/C(=C(\c1ccccc1)c1ccc(OCCN(C)C)cc1)c1ccccc1 [tamoxifen]
% Apoptosis (MCF7 cells [2]; MCF7 cells, CANN14 4 μg/ml, tamoxifen 5 μM or combination): not affected
% Apoptosis (ZR-75-1 cells): not affected
% Apoptosis (T47D cells): not affected
cleaved caspase-3, normalized intensity (treatment/control) [3]: increased induction of cleaved caspase-3
cleaved caspase-3, normalized intensity (treatment/control) [4]: increased induction of cleaved caspase-3
cleaved caspase-3, normalized intensity (treatment/control) [5]: increased induction of cleaved caspase-3
ectopic tumor volume / tumor size (MCF7 cells [6]): trend of smaller tumor sizes
% Cell death (MCF7 cells [7]): did not affect the viability of the cells

CCCCCc1cc(O)c(C/C=C(/C)CCC=C(C)C)c(O)c1OC(C)=O [CF2]
apoptotic effect compared with the original 1:25:1,000 combination of CF2, CBN, and THC (MCF7 cells [2]): same apoptotic effect as the original combination of the three phytocannabinoids
apoptotic effect compared with the CANN14 whole extract (MCF7 cells [2]; MCF7 cells, higher concentrations of CF2, in combination with tamoxifen, FIG. 4G): significantly superior to the CANN14 whole extract
ESR1 expression level (ESR1): lowest
expression levels of ERα target genes [1]: reduced to the lowest level compared to the control
cell viability (% Live cells) [8]: statistically significant reduction in cell viability; also recorded: reduces cell viability
ERα protein level (ERα [9]): significantly reduced; also recorded: reduces
ERα protein level (ERα [10]): significantly reduced the most; also recorded: reduces ERα protein level
